The data set deals with male and female ICR mice. Briefly: Safety test, oral administration to mice. The data set is classed as in vivo. The following applies: 10 g/kg (maximum allowable dose) or greater. The text has this: The peptide having the amino acid sequence Val-Val-Tyr-Pro (SEQ. ID. No. 1) prepared in Example 2 was orally administered to male and female ICR mice in an amount of 10 g/kg (maximum allowable dose) or greater, and there were no fatalities, thereby establishing the safety of the peptide.

The values below come from US20090155376A1, “PROTEIN HYDROLYSATE WITH ANTIDIABETIC EFFECT” (MG PHARMA INC., priority 2004, published 2009).

Where a SMILES comes first, the peptide text is derived from it.

As to `CC(C)[C@H](N)C(=O)N[C@H](C(=O)N[C@@H](Cc1ccc(O)cc1)C(=O)N1CCC[C@H]1C(=O)O)C(C)C` [Peptide (VVYP), Val-Val-Tyr-Pro] (H-VVYP-OH), the Fatalities entry is recorded as “no fatalities”.
